Assay [1] has as its target T1, PRMT5 (Homo sapiens, UniProt O14744).
T1 construct: purchased Viva (custom protein)
Nature of the assay: PRMT5 biochemical IC50 assay with SAM as cofactor. Particulars: PRMT5, SAM as cofactor; read-out: SAM IC50.

The target in assay [2] is T1, PRMT5. Nature of the assay: PRMT5 biochemical IC50 assay with no cofactor. Particulars: PRMT5, no cofactor; read-out: No Cofactor/rel IC50. From the text: Table 1 indicates IC50 values (μM) against PRMT5 for exemplary compounds in the presence of SAM as cofactor, with no cofactor, and with MTA as cofactor, respectively (columns 4-6). […] Ki values can be calculated from the IC50 values as described in the Examples section. As detailed in the Examples section, for the assay performed in the presence of SAM, IC50=Ki×1.5 (Ki=IC50/1.5).

Assay [3] concerns HAP1 MTAP-intact cell line. In words: SDMA in-cell western assay, HAP1 MTAP-intact. The assay is classed as cell-based. Conditions: Homo sapiens, HAP1, SDMA in-cell western, HAP1 MTAP-intact; read-out: MTAP HAP1 intact IC50. The essentials:
(§1)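 Isogenic HAP1 pair: the MTAP-intact line expresses endogenous MTAP, and the deleted line is MTAP-null. Symmetric dimethylarginine was detected by in-cell western and IC50 values derived for each line.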

For assay [4], the target named is T1, PRMT5. In words: PRMT5 biochemical IC50 assay with MTA as cofactor. Particulars: PRMT5, MTA as cofactor; read-out: MTA IC50.
In assay [5] the test system is HAP1 MTAP-deleted cell line. In words: Viability assay, MTAP-deleted cell line. Type of assay: cell-based. Conditions: Homo sapiens, HAP1, viability assay, MTAP-deleted cell line; read-out: HAP1 MTAP deleted viability. From the text: Table 1 additionally indicates IC50 values in a viability assay for the MTAP-deleted cell line (column 10), indicating the effect of treatment with compound on cell survival.

Assay [6] has as its system HAP1 MTAP-deleted cell line. In words: SDMA in-cell western assay, HAP1 MTAP-deleted. Particulars: for IC50: Homo sapiens, HAP1, SDMA in-cell western, HAP1 MTAP-deleted, read-out: HAP 1 MTAP deleted IC50; for MTAP intact/deleted ratio: IC50 ratio HAP1 MTAP-intact / HAP1 MTAP-deleted, SDMA in-cell western. Type of assay: cell-based. The method in brief: as §1

T1 sequence (O14744 whole entry): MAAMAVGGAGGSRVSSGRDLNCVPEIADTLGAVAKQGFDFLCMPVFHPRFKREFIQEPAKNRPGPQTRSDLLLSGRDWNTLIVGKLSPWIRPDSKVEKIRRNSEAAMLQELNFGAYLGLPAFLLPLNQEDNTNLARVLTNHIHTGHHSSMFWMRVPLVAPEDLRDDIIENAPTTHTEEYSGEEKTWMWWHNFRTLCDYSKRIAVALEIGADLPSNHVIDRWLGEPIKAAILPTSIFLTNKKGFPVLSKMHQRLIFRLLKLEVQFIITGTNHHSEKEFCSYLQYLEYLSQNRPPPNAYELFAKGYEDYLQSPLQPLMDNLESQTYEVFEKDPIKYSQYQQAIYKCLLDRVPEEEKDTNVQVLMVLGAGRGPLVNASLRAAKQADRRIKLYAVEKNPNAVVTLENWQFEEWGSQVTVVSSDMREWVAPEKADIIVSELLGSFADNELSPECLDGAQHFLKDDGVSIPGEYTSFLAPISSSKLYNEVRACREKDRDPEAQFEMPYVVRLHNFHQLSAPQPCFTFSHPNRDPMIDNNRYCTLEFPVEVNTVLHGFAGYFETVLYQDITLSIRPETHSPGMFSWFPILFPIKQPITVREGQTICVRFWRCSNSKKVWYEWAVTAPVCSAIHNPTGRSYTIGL
T1 sequence (Q9BQA1 whole entry partner): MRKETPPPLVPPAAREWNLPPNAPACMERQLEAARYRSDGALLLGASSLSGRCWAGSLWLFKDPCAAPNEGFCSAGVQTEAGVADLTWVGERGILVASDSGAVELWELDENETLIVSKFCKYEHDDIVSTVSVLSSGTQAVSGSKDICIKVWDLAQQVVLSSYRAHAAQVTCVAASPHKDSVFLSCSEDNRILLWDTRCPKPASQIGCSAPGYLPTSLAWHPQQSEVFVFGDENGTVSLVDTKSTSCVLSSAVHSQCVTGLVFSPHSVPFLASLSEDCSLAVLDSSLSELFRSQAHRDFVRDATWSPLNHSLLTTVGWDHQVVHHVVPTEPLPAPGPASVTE

As to `Cc1cc(NC(=O)C(=O)N2C[C@H](C)CC[C@H]2c2ccc3nn(C)cc3c2)cnc1N` (racemic) [Compound 912], the IC50 on PRMT5 [1] is 0.05 to 0.5 µM; at PRMT5 [2], 0.05 to 0.5 µM; in assay [3], 0.1 to 1 µM; on PRMT5 [4], 0.05 to 0.5 µM; in assay [5] it was < 1 µM; in assay [6], < 0.1 µM. Also, the MTAP intact/deleted ratio result in assay [6] is on record as “A (an IC50 ratio greater than or equal to 10 fold)”.

Take `CCc1cc(NC(=O)C(=O)N2C[C@@H](C)CC[C@@H]2c2cnc3c(c2)CCC(=O)N3)cnc1N` (racemic) [Compound 916, rac-N-(6-Amino-5-ethyl-3-pyridyl)-2-[(2S,5R)-5-methyl-2-(7-oxo-6,8-dihydro-5H-1,8-naphthyridin-3-yl)-1-piperidyl]-2-oxo-acetamide]: the IC50 was > 0.5 µM on PRMT5 [1]; 0.05 to 0.5 µM on PRMT5 [2]; > 1 µM in assay [3]; 0.05 to 0.5 µM at PRMT5 [4]; 1 to 10 µM in assay [5]; < 0.1 µM in assay [6]. In addition, the MTAP intact/deleted ratio result in assay [6] is on record as “A (an IC50 ratio greater than or equal to 10 fold)”.

For `Cc1cc(NC(=O)C(=O)N2C[C@H](C)CC[C@H]2c2ccc3sc(N)nc3c2)cnc1C` (racemic) [Compound 920, 2-[(2R,5S)-2-(2-amino-1,3-benzothiazol-5-yl)-5-methyl-1-piperidyl]-N-(5,6-dimethyl-3-pyridyl)-2-oxo-acetamide], the IC50 was 0.05 to 0.5 µM at PRMT5 [1]; 0.05 to 0.5 µM on PRMT5 [2]; > 1 µM in assay [3]; 0.05 to 0.5 µM at PRMT5 [4]; 1 to 10 µM in assay [5]; < 0.1 µM in assay [6]. For the same compound, in assay [6], the MTAP intact/deleted ratio result is reported as “A (an IC50 ratio greater than or equal to 10 fold)”.

As for `Cc1cc(NC(=O)C(=O)N2C[C@H](C)CC[C@H]2c2cnc3c(c2)CCC(=O)N3)cnc1N` (racemic) [Compound 923, rac-N-(6-Amino-5-methyl-3-pyridyl)-2-[(2S,5R)-5-methyl-2-(7-oxo-6,8-dihydro-5H-1,8-naphthyridin-3-yl)-1-piperidyl]-2-oxo-acetamide], the IC50 on PRMT5 [1] was 0.05 to 0.5 µM; on PRMT5 [2] it was 0.05 to 0.5 µM; in assay [3], > 1 µM; at PRMT5 [4] it was 0.05 to 0.5 µM; in assay [5], 1 to 10 µM; in assay [6] it was 0.1 to 1 µM. Further, the MTAP intact/deleted ratio result in assay [6] is recorded as “A (an IC50 ratio greater than or equal to 10 fold)”.

On to `COc1ncc(NC(=O)C(=O)N2C[C@H](C)CC[C@H]2c2ccc(C)cn2)cc1C(N)=O` (racemic) [Compound 932, 2-Methoxy-5-[[2-[(2R,5S)-5-methyl-2-(5-methyl-2-pyridyl)-1-piperidyl]-2-oxo-acetyl]amino]pyridine-3-carboxamide], for which the IC50 is 0.05 to 0.5 µM on PRMT5 [1]; 0.05 to 0.5 µM on PRMT5 [2]; > 1 µM in assay [3]; 0.05 to 0.5 µM at PRMT5 [4]; 1 to 10 µM in assay [5]; < 0.1 µM in assay [6]. The MTAP intact/deleted ratio entry in assay [6] was “A (an IC50 ratio greater than or equal to 10 fold)”.

With `Cc1ccc([C@H]2CC[C@H](C)CN2C(=O)C(=O)Nc2cncc(C(N)=O)c2)nc1` (racemic) [Compound 937, 5-[[2-[(2R,5S)-5-Methyl-2-(5-methyl-2-pyridyl)-1-piperidyl]-2-oxo-acetyl]amino]pyridine-3-carboxamide], the IC50 is 0.05 to 0.5 µM on PRMT5 [1]; 0.05 to 0.5 µM on PRMT5 [2]; > 1 µM in assay [3]; 0.05 to 0.5 µM at PRMT5 [4]; 1 to 10 µM in assay [5]; 0.1 to 1 µM in assay [6]. For the same compound, the MTAP intact/deleted ratio entry in assay [6] was “A (an IC50 ratio greater than or equal to 10 fold)”.

On to `Cc1cc(NC(=O)C(=O)N2C[C@H](C)C[C@@H](F)[C@H]2c2ccc(F)cc2)cnc1N` (racemic) [Compound 939, N-(6-amino-5-methyl-3-pyridyl)-2-[(2R,3R,5R)-3-fluoro-2-(4-fluorophenyl)-5-methyl-1-piperidyl]-2-oxo-acetamide], for which the IC50 at PRMT5 [1] is 0.05 to 0.5 µM; at PRMT5 [2], 0.05 to 0.5 µM; in assay [3], > 1 µM; on PRMT5 [4] it was 0.05 to 0.5 µM; in assay [5], 1 to 10 µM; in assay [6] it was 0.1 to 1 µM. The MTAP intact/deleted ratio result in assay [6] is given as “A (an IC50 ratio greater than or equal to 10 fold)”.

As to `Cc1cc(NC(=O)C(=O)N2C[C@H](C)C[C@H](F)[C@@H]2c2ccc(F)cc2)cnc1N` (racemic) [Compound 940, N-(6-amino-5-methyl-3-pyridyl)-2-[(2R,3R,5S)-3-fluoro-2-(4-fluorophenyl)-5-methyl-1-piperidyl]-2-oxo-acetamide], the IC50 is 0.05 to 0.5 µM at PRMT5 [1]; 0.05 to 0.5 µM on PRMT5 [2]; > 1 µM in assay [3]; 0.05 to 0.5 µM on PRMT5 [4]; 1 to 10 µM in assay [5]; 0.1 to 1 µM in assay [6]. In assay [6], the MTAP intact/deleted ratio result is listed as “A (an IC50 ratio greater than or equal to 10 fold)”.

Regarding `Cc1cc(NC(=O)C(=O)N2C[C@H](C)CC[C@H]2c2ccsc2)cnc1N` (racemic) [Compound 977, rac-N-(6-Amino-5-methyl-3-pyridyl)-2-[(2R,5S)-5-methyl-2-(3-thienyl)-1-piperidyl]-2-oxo-acetamide], the IC50 at PRMT5 [1] was 0.05 to 0.5 µM; at PRMT5 [2] it was 0.05 to 0.5 µM; in assay [3], 0.1 to 1 µM; on PRMT5 [4], 0.05 to 0.5 µM; in assay [5], 1 to 10 µM; in assay [6], < 0.1 µM. The MTAP intact/deleted ratio entry in assay [6] is given as “B (an IC50 ratio greater than or equal to 3 fold but lower than 10 fold)”.

In the case of `Cc1ccc([C@H]2CC[C@@H](C)CN2C(=O)C(=O)Nc2cnc(N)c(C)c2)nc1` (racemic) [Compound 982, N-(6-amino-5-methyl-3-pyridyl)-2-[(2R,5R)-5-methyl-2-(5-methyl-2-pyridyl)-1-piperidyl]-2-oxo-acetamide], the IC50 at PRMT5 [1] is > 0.5 µM; on PRMT5 [2], 0.05 to 0.5 µM; in assay [3], > 1 µM; on PRMT5 [4], 0.05 to 0.5 µM; in assay [5], > 10 µM; in assay [6], 0.1 to 1 µM. Moreover, the MTAP intact/deleted ratio result in assay [6] is recorded as “B (an IC50 ratio greater than or equal to 3 fold but lower than 10 fold)”.

Consider `Cc1cc(NC(=O)C(=O)N2C[C@H](C)CC[C@H]2c2ccc(-c3nccs3)cn2)cnc1N` (racemic) [Compound 991], for which the IC50 on PRMT5 [1] was 0.05 to 0.5 µM; on PRMT5 [2], 0.05 to 0.5 µM; in assay [3], > 1 µM; on PRMT5 [4], 0.05 to 0.5 µM; in assay [5] it was 1 to 10 µM; in assay [6] it was 0.1 to 1 µM. Also, in assay [6], the MTAP intact/deleted ratio result was “C (an IC50 ratio of less than 3 fold)”.

Regarding `Cc1cc(NC(=O)C(=O)N2C[C@H](C)CC[C@H]2c2ccc3[nH]c(N)nc3c2)cnc1C` (racemic) [Compound 992], the IC50 on PRMT5 [1] is 0.05 to 0.5 µM; at PRMT5 [2], 0.05 to 0.5 µM; in assay [3] it was > 1 µM; at PRMT5 [4], < 0.05 µM; in assay [5] it was 1 to 10 µM; in assay [6], < 0.1 µM. Also, the MTAP intact/deleted ratio result in assay [6] is reported as “A (an IC50 ratio greater than or equal to 10 fold)”.

`Cc1ccc([C@@H]2CC[C@@H](C)CN2C(=O)C(=O)Nc2cnc(N)c(C)c2)nc1` (racemic) [Compound 1005, N-(6-Amino-5-methyl-3-pyridyl)-2-[(2R,5S)-5-methyl-2-(5-methyl-2-pyridyl)-1-piperidyl]-2-oxo-acetamide]: the IC50 on PRMT5 [1] is > 0.5 µM; on PRMT5 [2] it was 0.05 to 0.5 µM; in assay [3], > 1 µM; on PRMT5 [4], 0.05 to 0.5 µM; in assay [5], 1 to 10 µM; in assay [6] it was 0.1 to 1 µM. In assay [6], the MTAP intact/deleted ratio entry is “A (an IC50 ratio greater than or equal to 10 fold)”.

Turning to `[2H][C@]1(c2ccc(F)cc2)CC[C@H](C)CN1C(=O)C(=O)Nc1cncc(C(N)=O)c1` (racemic) [Compound 1008, 5-(2-(2-(4-fluorophenyl)-5-methylpiperidin-1-yl-2-d)-2-oxoacetamido)nicotinamide], the IC50 is 0.05 to 0.5 µM at PRMT5 [1]; 0.05 to 0.5 µM on PRMT5 [2]; > 1 µM in assay [3]; 0.05 to 0.5 µM on PRMT5 [4]; 1 to 10 µM in assay [5]; 0.1 to 1 µM in assay [6]. For the same compound, the MTAP intact/deleted ratio result in assay [6] is “A (an IC50 ratio greater than or equal to 10 fold)”.

Turning to `[2H]c1c([2H])c([C@@]2([2H])CC[C@H](C)CN2C(=O)C(=O)Nc2cncc(C(N)=O)c2)c([2H])c([2H])c1F` (racemic) [Compound 1010, 5-(2-(2-(4-fluorophenyl-2,3,5,6-d4)-5-methylpiperidin-1-yl-2-d)-2-oxoacetamido)nicotinamide], the IC50 is 0.05 to 0.5 µM at PRMT5 [1]; 0.05 to 0.5 µM at PRMT5 [2]; > 1 µM in assay [3]; 0.05 to 0.5 µM at PRMT5 [4]; 1 to 10 µM in assay [5]; 0.1 to 1 µM in assay [6]. In addition, the MTAP intact/deleted ratio result in assay [6] was “A (an IC50 ratio greater than or equal to 10 fold)”.

For the origin of these results see patent US11999727B2 (Tango Therapeutics, Inc., priority 2020, dated 2024).
